Source: the supplement of paper PMC11451515

System: P12-Ichikawa
Experiment: cell viability relative to DMSO control; higher = less cytotoxic
Conditions: 48 h
Method in brief: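 Cells were incubated for 48 h at 37°C before CellTiter-Glo One luminescence was read. The cells were NOMO1 or SEM (500 cells/well) or P12-Ichikawa (1000 cells/well) leukemia cells, adapted for at least four passages in each medium and seeded in 1536-well plates (5 μl). Dosing used library compounds in DMSO applied by pin over 11 threefold points, 47 μM to 0.79 nM. Viability is the per-plate percentage of DMSO wells, with cell-free wells as background.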

[1] = HPLM + 10% dialyzed FBS, 0.000781 µM
[2] = HPLM + 10% dialyzed FBS, 0.00234 µM
[3] = HPLM + 10% dialyzed FBS, 0.00702 µM
[4] = HPLM + 10% dialyzed FBS, 0.0211 µM
[5] = HPLM + 10% dialyzed FBS, 0.0632 µM
[6] = HPLM + 10% dialyzed FBS, 0.19 µM
[7] = HPLM + 10% dialyzed FBS, 0.569 µM
[8] = HPLM + 10% dialyzed FBS, 1.71 µM
[9] = HPLM + 10% dialyzed FBS, 5.12 µM
[10] = HPLM + 10% dialyzed FBS, 15.4 µM
[11] = HPLM + 10% dialyzed FBS, 46.1 µM
[12] = RPMI 5 mM glucose + 10% FBS, 0.000781 µM
[13] = RPMI 5 mM glucose + 10% FBS, 0.00234 µM
[14] = RPMI 5 mM glucose + 10% FBS, 0.00702 µM
[15] = RPMI 5 mM glucose + 10% FBS, 0.0211 µM
[16] = RPMI 5 mM glucose + 10% FBS, 0.0632 µM
[17] = RPMI 5 mM glucose + 10% FBS, 0.19 µM
[18] = RPMI 5 mM glucose + 10% FBS, 0.569 µM
[19] = RPMI 5 mM glucose + 10% FBS, 1.71 µM
[20] = RPMI 5 mM glucose + 10% FBS, 5.12 µM
[21] = RPMI 5 mM glucose + 10% FBS, 15.4 µM
[22] = RPMI 5 mM glucose + 10% FBS, 46.1 µM
[23] = RPMI 5 mM glucose + 10% dialyzed FBS, 0.000781 µM
[24] = RPMI 5 mM glucose + 10% dialyzed FBS, 0.00234 µM
[25] = RPMI 5 mM glucose + 10% dialyzed FBS, 0.00702 µM
[26] = RPMI 5 mM glucose + 10% dialyzed FBS, 0.0211 µM
[27] = RPMI 5 mM glucose + 10% dialyzed FBS, 0.0632 µM
[28] = RPMI 5 mM glucose + 10% dialyzed FBS, 0.19 µM
[29] = RPMI 5 mM glucose + 10% dialyzed FBS, 0.569 µM
[30] = RPMI 5 mM glucose + 10% dialyzed FBS, 1.71 µM
[31] = RPMI 5 mM glucose + 10% dialyzed FBS, 5.12 µM
[32] = RPMI 5 mM glucose + 10% dialyzed FBS, 15.4 µM
[33] = RPMI 5 mM glucose + 10% dialyzed FBS, 46.1 µM

| Structure (SMILES) | cell viability [1] | cell viability [2] | cell viability [3] | cell viability [4] | cell viability [5] | cell viability [6] | cell viability [7] | cell viability [8] | cell viability [9] | cell viability [10] | cell viability [11] | cell viability [12] | cell viability [13] | cell viability [14] | cell viability [15] | cell viability [16] | cell viability [17] | cell viability [18] | cell viability [19] | cell viability [20] | cell viability [21] | cell viability [22] | cell viability [23] | cell viability [24] | cell viability [25] | cell viability [26] | cell viability [27] | cell viability [28] | cell viability [29] | cell viability [30] | cell viability [31] | cell viability [32] | cell viability [33] |
| --- | --- | --- | --- | --- | --- | --- | --- | --- | --- | --- | --- | --- | --- | --- | --- | --- | --- | --- | --- | --- | --- | --- | --- | --- | --- | --- | --- | --- | --- | --- | --- | --- | --- |
| C[C@H](NC(=O)C(=O)Nc1ccccc1C(C)(C)C)C(=O)N[C@@H](CC(=O)O)C(=O)COc1c(F)c(F)cc(F)c1F | 107% | 120% | 122% | 130% | 125% | 124% | 130% | 129% | 120% | 88.7% | 4.89% | 101% | 131% | 124% | 120% | 133% | 128% | 126% | 122% | 121% | 56.4% | 4.69% | 102% | 111% | 112% | 127% | 124% | 130% | 128% | 126% | 107% | 58.9% | 4.53% |
| C[C@@H]1CC[C@@]2(OC1)O[C@H]3C[C@H]4[C@@H]5C/C=C6/C[C@H](CC[C@]6(C)[C@H]5CC[C@]4(C)[C@H]3[C@@H]2C)O[C@@H]7O[C@H](CO)[C@@H](O[C@@H]8O[C@@H](C)[C@H](O)[C@@H](O)[C@H]8O)[C@H](O)[C@H]7O[C@@H]9O[C@@H](C)[C@H](O)[C@@H](O)[C@H]9O | 124% | 128% | 119% | 131% | 129% | 130% | 136% | 134% | 132% | 116% | 7.3% |  |  |  |  |  |  |  |  |  |  |  |  |  |  |  |  |  |  |  |  |  |  |
| Cc1ccc(NC(=O)C2(c3ccc4c(c3)OC(F)(F)O4)CC2)nc1-c1cccc(C(=O)O)c1 | 101% | 111% | 101% | 108% | 93.4% | 58.4% | 29.4% | 19.5% | 17.2% | 10.9% | 6.66% | 106% | 98.6% | 95.5% | 101% | 85.3% | 42.2% | 18.7% | 16.1% | 11.1% | 9.88% | 6.85% | 102% | 103% | 97% | 96.1% | 95.4% | 44.5% | 30.4% | 20.8% | 9.02% | 8.13% | 6.13% |
| Nc1nc(-c2nn(Cc3ccccc3F)c3ncccc23)nc(N)c1N1CCOCC1 | 92.3% | 100% | 105% | 111% | 111% | 112% | 110% | 109% | 109% | 107% | 95.9% | 93.1% | 97.9% | 98.8% | 116% | 107% | 112% | 110% | 109% | 107% | 111% | 107% | 86.1% | 101% | 100% | 108% | 104% | 92.1% | 107% | 101% | 104% | 103% | 87.3% |
| Cc1ccc(NC(=O)c2ccc(CN3CCN(C)CC3)cc2)cc1Nc1nccc(-c2cccnc2)n1 | 93.8% | 95.7% | 105% | 97.9% | 113% | 103% | 112% | 109% | 110% | 109% | 92.7% | 98.2% | 107% | 101% | 96.5% | 115% | 113% | 114% | 109% | 103% | 105% | 100% | 102% | 107% | 108% | 111% | 109% | 113% | 115% | 104% | 97.6% | 112% | 106% |
| O=C/1\C=C(/OC(=C1)/C2=C3SC4=C(SC3=CC=C2)C=CC=C4)N5CCOCC5 | 81.4% | 100% | 98.5% | 10.6% | 100% | 103% | 102% | 98.1% | 95.2% | 94.4% | 95% | 84.7% | 92.7% | 96.9% | 11.2% | 103% | 100% | 106% | 104% | 93.1% | 102% | 102% | 83.4% | 94.4% | 97.2% | 23.7% | 95.7% | 84.4% | 99.2% | 99.4% | 96% | 95.7% | 90.8% |
| Cc1cc2c(C(C)C)c(O)c(O)c(C=O)c2c(O)c1-c1c(C)cc2c(C(C)C)c(O)c(O)c(C=O)c2c1O | 113% | 111% | 111% | 113% | 108% | 99.6% | 108% | 104% | 102% | 98.1% | 17.1% | 117% | 125% | 127% | 121% | 119% | 106% | 117% | 101% | 112% | 106% | 10.6% | 116% | 124% | 118% | 116% | 111% | 109% | 110% | 104% | 110% | 100% | 22% |
| CN1CCCN(C(=O)c2cccc(-c3ccc(/C=C4/C(=O)Nc5ccc(Cl)cc54)o3)c2)CC1 | 106% | 119% | 114% | 116% | 114% | 120% | 106% | 92.3% | 76.9% | 76.9% | 59.2% | 117% | 108% | 111% | 117% | 115% | 110% | 102% | 85.8% | 54.7% | 20.1% | 3.03% | 103% | 107% | 117% | 114% | 113% | 108% | 111% | 90.7% | 64.3% | 53% | 5.68% |
| CC[C@H]1OC(=O)[C@H](C)[C@@H](O[C@H]2C[C@@](C)(OC)[C@@H](O)[C@H](C)O2)[C@H](C)[C@@H](O[C@@H]2O[C@@H](C)C[C@H](N(C)C)[C@H]2O)[C@](C)(O)C[C@@H](C)C(=O)[C@H](C)[C@@H](O)[C@]1(C)O | 83.8% | 88.3% | 94.6% | 98.3% | 91.2% | 89.9% | 97.9% | 94.6% | 84% | 57.4% | 18.4% | 84.9% | 87% | 85.6% | 91.3% | 87.6% | 90% | 91.7% | 87.8% | 87.3% | 91.8% | 13.6% | 88.4% | 84.3% | 88.7% | 91.8% | 84.1% | 93.4% | 89.3% | 92.9% | 89.8% | 88.4% | 28% |
| O=C(NC1CCNCC1)c1n[nH]cc1NC(=O)c1c(Cl)cccc1Cl | 106% | 111% | 117% | 111% | 115% | 111% | 112% | 54.1% | 11.6% | 12.2% | 9.17% | 114% | 115% | 112% | 109% | 113% | 121% | 111% | 50.9% | 12.9% | 12.1% | 7.33% | 114% | 112% | 109% | 115% | 116% | 112% | 103% | 79.1% | 13.7% | 13.8% | 10.1% |
| Cl.c1cnc2cc3c(cc2n1)C1CNCC3C1 | 108% | 111% | 114% | 114% | 119% | 114% | 117% | 122% | 114% | 114% | 106% | 106% | 115% | 121% | 117% | 122% | 117% | 127% | 118% | 127% | 130% | 130% | 106% | 113% | 112% | 116% | 123% | 114% | 121% | 123% | 121% | 116% | 120% |
| FC(F)(F)c1ccc(Nc2nc3cc(Oc4ccnc(-c5ncc(C(F)(F)F)[nH]5)c4)ccc3[nH]2)cc1 | 118% | 111% | 115% | 120% | 122% | 115% | 117% | 123% | 118% | 112% | 71.3% | 119% | 119% | 127% | 123% | 130% | 122% | 127% | 137% | 130% | 111% | 67.8% |  |  |  |  |  |  |  |  |  |  |  |
| O=C(O)[C@H](Cc1c[nH]c2ccccc12)N1C(=O)c2ccccc2C1=O | 98.3% | 109% | 104% | 106% | 99.5% | 99.8% | 105% | 110% | 103% | 102% | 99.3% | 89.6% | 91.9% | 91.3% | 93.4% | 98.3% | 103% | 103% | 97% | 101% | 101% | 94.3% | 91.2% | 90.5% | 91.8% | 102% | 94.4% | 99.5% | 99% | 105% | 95% | 98.6% | 92.2% |
